Substitutions are numbered along the chain they refer to. pIC50: −log10 of the molar value.
What was measured:
[1] = target: T1, human RGS12 RGS-box (wild-type) (Homo sapiens, UniProt O14924); experiment: Transcreener GDP RGScreen fluorescence polarization assay of RGS12 RGS-box GAP activity on Gαi1(DM); format: biochemical; conditions: wild-type RGS12 RGS-box GAP activity, Gαi1(DM), read-out: RGS12 pIC50 (converted)
T1 construct: human RGS12 RGS-box (aa 695–843 of UniProt O14924); host or cells: E. coli
T1 sequence (O14924 695-843): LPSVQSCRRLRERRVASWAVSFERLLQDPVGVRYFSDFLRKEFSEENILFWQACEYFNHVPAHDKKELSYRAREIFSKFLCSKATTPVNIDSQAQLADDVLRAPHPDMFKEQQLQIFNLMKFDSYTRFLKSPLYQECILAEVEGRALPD
In short: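 Steady-state GTP hydrolysis by rate-altered double point-mutant Gαi1 was read by Transcreener GDP fluorescence polarization, with GTP conversion kept below 10% of maximum input. The E. coli-expressed, N-terminal His6-tagged wild-type RGS-boxes were RGS12 aa 695–843 and RGS14 aa 46–195.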

[2] = target: T2, cysteine-less RGS12 RGS-box protein (Homo sapiens, UniProt O14924, C701S/C748S/C775S/C831S); experiment: Transcreener GDP RGScreen assay with cysteine-less RGS12 RGS-box; format: biochemical; conditions: range given jointly for cysteine-less RGS14 and RGS12 proteins; read-out: estimated IC50, cysteine-less RGS12 RGS-box
T2 construct: human RGS12 RGS-box (aa 695–843 of UniProt O14924); host or cells: E. coli
T2 sequence (O14924 695-843 C701S/C748S/C775S/C831S): T1 sequence (O14924 695-843) with C7S, C54S, C81S, C137S
From the text: Given the earlier experience with screening hit CCG-4986 being a covalent modifier of RGS4 cysteine residues ([35]), we sought to exclude protein-thiol reactivity as a potential mechanism of action of the active compounds derived from the AtomNet virtual screening effort ([55]) and SAR campaign follow-ups. To address this possibility and screen out thiol-reactive hits, cysteine-lacking versions of recombinant proteins spanning the RGS-boxes of RGS14 and RGS12 were purified from E. coli cultures.
Reagents and protocols for the fluorescence anisotropy-based Transcreener GDP RGScreen assay using a rate-altered, double point-mutant, recombinant Gαi1 protein have been extensively described previously ([43], [44]); reactions were always performed so that total GTP converted over the time course was consistently less than 10% of reaction maximum input. […] Open-reading frames (ORFs) encoding wild-type versions of the human RGS14 RGS-box (aa 46–195 of UniProt O43566) and human RGS12 RGS-box (aa 695–843 of UniProt O14924) were each sub-cloned in-frame with an N-terminal hexahistidine (His6) expression tag in the plasmid pET30a, expressed in E. coli cultures, and then purified by nickel-nitriloacetate (Ni-NTA) and size-exclusion (Superdex 200) column chromatographies by GenScript using previously described methods ([35]). […]

IC50 [1]: 1.2 µM | pIC50 [2]: 4.72 to 5.00
Compound: COc1ccc(OCc2nnc3n2N=C(c2ccc(OC)c(OC)c2)CS3)cc1 [Z55660043, 6-(3,4-dimethoxyphenyl)-3-[(4-methoxy-phenoxy)methyl]-5H-[1,2,4]triazolo[3,4-b][1,3,4]thiadiazine]

Reference: article PMC12495443, “Developing inhibitors of the guanosine triphosphate hydrolysis accelerating activity of Regulator of G protein Signaling-14 [drawing 1]” (The Journal of Biological Chemistry, 2025)
